Measured values published in publication PMC10418735, “Lipophilic Studies and In Silico ADME Profiling of Biologically Active 2-Aminothiazol-4(5H)-one Derivatives” (International Journal of Molecular Sciences, 2023).

How the values were obtained:
[1] = Lipophilicity by RP-HPLC (methanol/water, RP-18 column); type: physicochemical; conditions: for −S (slope of the regression curve), RP–HPLC / log kw: methanol/water, RP-HPLC; for log kw: extrapolated to zero methanol concentration, 25 °C; for Φ0 (chromatographic lipophilicity parameter), RP–HPLC: Φ0 = −log kw/S
Description: The HPLC experiments were performed on the Shimadzu HPLC system (Kyoto, Japan) equipped with solvent delivery pump LC-20AD, UV–VIS detector model SPD-20A, degasser model DGU-20A5, a column oven model CTO-20A, and a column Superspher® 100 RP-18 (4 μm), Merck (Darmstadt, Germany). Methanol and water for HPLC from POCH (Gliwice, Poland) were used as solvents. Mobile phase methanol/water varied in the various ratios. Methanol concentration expressed as volume fraction v/v, varied in the range from 0.55 to 0.95 in constant steps of 0.05. Compounds 1–28 were dissolved in methanol (1 mg/mL). The mobile phase flow rate was 0.7 mL/min. The injection volume was 0.02 mL. All analyzes were performed at 25 °C. Experiments were performed in triplicate with similar results.
The retention coefficient k was calculated from the following relationship:(1) k=tr/tm−1, where tr [min]—retention time, and tm [min]—time for dead volume (measured by use of uracil).
To determine the linear relationship between the values of the log k parameter and the concentration of methanol in the mobile phase, the Soczewiński–Wachtmeister equation was used:(2) logk= log kw+SΦ, where log kw —value extrapolated to zero methanol concentration, Φ —methanol concentration in the mobile phase (volume fraction v/v), and S—the slope of the regression curve.
The parameter Φ0 was calculated from the equation:(3) Φ0=−log kw/S.

[2] = Lipophilicity by RP-TLC (methanol/water, HPTLC 60RP-18 plates); type: physicochemical; conditions: for −S (slope of the regression curve), RP–TLC / RM0: methanol/water, RP-TLC; for RM0: extrapolated to zero methanol concentration, 22 °C; for Φ0 (chromatographic lipophilicity parameter), RP–TLC: Φ0 = −RM0/S
Description: Specifically, 10 × 10 cm plates with silica gel HPTLC 60RP-18 WF254s (Merck, Darmstadt, Niemcy) were used as the stationary phase. Methanol and water for HPLC from POCH (Gliwice, Poland) were used as solvents. Methanol concentration expressed as volume fraction v/v, varied in the range from 0.5 to 0.7 in constant steps of 0.05. Test compounds were dissolved in methanol (2 mg/mL), and then samples (0.01 mL) of each were applied to plates, which were developed in a horizontal DS chamber (Chromdes, Lublin, Poland).
The developing distance was 8 cm. Developed plates were air-dried and observed under 254 nm ultraviolet lamp. All analyzes were performed at 22 °C. Experiments were performed in triplicate with similar results.
For all the compounds, the relative lipophilicity RM values for five methanol–water mobile phases were calculated by the use of the following formula:(4) RM=log[1−RF/RF].
The linear relationship between the RM values and the concentration of methanol in the mobile phase to determine the lipophilicity parameters RM0 is described by the following equation:(5) RM=RM0+SΦ, where Φ —methanol concentration in the mobile phase (volume fraction v/v), and S—the slope of the regression curve.
The quantity Φ0 was calculated from the following equation:(6) Φ0=−RM0/S.

SMILES | −S (slope of the regression curve), RP–HPLC [1] | log kw [1] | Φ0 (chromatographic lipophilicity parameter), RP–HPLC [1] | −S (slope of the regression curve), RP–TLC [2] | RM0 [2] | Φ0 (chromatographic lipophilicity parameter), RP–TLC [2]
CC(C)(C)NC1=NC(=O)C(C)(C)S1 [Compound 14] | 3.320 | 2.02 | 0.608 | 1.826 | 1.19 | 0.652
CC(C)(C)NC1=NC(=O)C(c2ccccc2)S1 (centres unmarked) [Compound 15] | 4.449 | 3.25 | 0.730 | 4.293 | 3.17 | 0.739
CC(C)(C)NC1=NC(=O)C(c2ccc(Br)cc2)S1 (centres unmarked) [Compound 16] | 4.537 | 3.38 | 0.745 | 4.131 | 3.20 | 0.774
CC(C)(C)NC1=NC(=O)C2(CCCCC2)S1 [Compound 17, 2-(tert-butylamino)-1-thia-3-azaspiro[4.5]dec-2-en-4-one] | 3.904 | 2.86 | 0.732 | 2.477 | 1.89 | 0.762
CC(C)(C)NC1=NC(=O)C2(CCC2)S1 [Compound 18] | 3.297 | 2.15 | 0.652 | 2.476 | 1.69 | 0.683
CC1SC(NC23CC4CC(CC(C4)C2)C3)=NC1=O (centres unmarked) [Compound 19] | 4.099 | 3.22 | 0.786 | 3.148 | 2.55 | 0.810
CCC1SC(NC23CC4CC(CC(C4)C2)C3)=NC1=O (centres unmarked) [Compound 20] | 4.437 | 3.6 | 0.811 | 2.678 | 2.30 | 0.860
CCCC1SC(NC23CC4CC(CC(C4)C2)C3)=NC1=O (centres unmarked) [Compound 21] | 4.859 | 4.08 | 0.840 | 2.564 | 2.33 | 0.909
CC(C)C1SC(NC23CC4CC(CC(C4)C2)C3)=NC1=O (centres unmarked) [Compound 22] | 4.744 | 3.94 | 0.830 | 3.175 | 2.67 | 
CC1(C)SC(NC23CC4CC(CC(C4)C2)C3)=NC1=O [Compound 23] | 4.392 | 3.54 | 0.806 | 2.446 | 2.11 | 0.863
O=C1N=C(NC23CC4CC(CC(C4)C2)C3)SC1c1ccccc1 (centres unmarked) [Compound 24, 2-(adamantan-1-ylamino)-5-phenylthiazol-4(5H)-one] | 5.024 | 4.13 | 0.822 | 4.203 | 3.31 | 0.787
O=C1N=C(NC23CC4CC(CC(C4)C2)C3)SC1c1ccc(Br)cc1 (centres unmarked) [Compound 25, 2-(adamantan-1-ylamino)-5-(4-bromophenyl)thiazol-4(5H)-one] | 5.578 | 5.63 | 1.009 | 3.277 | 3.56 | 1.086
O=C1N=C(NC23CC4CC(CC(C4)C2)C3)SC12CCCCC2 [Compound 26] | 5.192 | 4.49 | 0.865 | 3.520 | 3.09 | 0.879
